Like-named read-outs stand apart in the source and are kept apart here.
What was measured:
CDK1/Cyclin B = CDK1/Cyclin B (Homo sapiens, UniProt P06493); assay: CDK1/cyclin B kinase assay (GST-Rb phosphorylation);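 further: Enzyme: His-tagged CDK1/Cyclin B co-expressed in baculovirus-infected Sf9 insect cells, purified via metal-chelate chromatography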
CDK2/Cyclin E = target: T1, CDK2/Cyclin E (Homo sapiens, UniProt P24941); assay: CDK2/cyclin E kinase assay (GST-Rb phosphorylation); assay type: biochemical;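 further: enzyme source: His-tagged CDK2/cyclin E complex co-expressed recombinantly in Sf9 insect cells using baculovirus constructs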
T1 construct: His; made in house; host or cells: Sf9 insect cells (baculovirus)
Protocol: His-tagged CDK2/Cyclin E and CDK1/Cyclin B may be co-expressed and PKCα singularly expressed in Sf 9 insect cells infected with the appropriate baculovirus constructs. The cells are harvested two days after infection by low speed centrifugation and the proteins purified from the insect cell pellets by Metal-chelate chromatography. Briefly, the insect cell pellet is lysed in Buffer A (10 mM Tris-HCl, pH 8.0, 150 mM NaCl, 0.02% NP40 and 5 mM β-marcaptoethanol, 1 mM NaF. 1 mM Na3VO4 and Protease Inhibitors Coctail (Sigma) containing AEBSF, pepstatin A, E 64, bestatin, leupeptin) by sonication. The soluble fraction is cleared by centrifugation and loaded onto Ni-NTA-Agarose (Quiagen). Non bound proteins were washed off with 300 mM NaCl, 5-15 mM Imidazole in Buffer A and the bound proteins eluted with 250 mM Imidazole in Buffer A. The purified proteins are extensively dialyzed against Storage buffer (20 mM HEPES pH 7.4, 50 mM NaCl, 2 mM DTT, 1 mM EDTA, 1 mM EGTA, 0.02% NP40, 10% v/v Glycerol) aliquoted and stored at −70° C.

CDK9/cyclin T1 = CDK9/cyclin T1 (Homo sapiens, UniProt P50750); assay: CDK9 assay (CTD peptide substrate); assay type: biochemical
Chain of CDK9/cyclin T1 (P50750 whole entry): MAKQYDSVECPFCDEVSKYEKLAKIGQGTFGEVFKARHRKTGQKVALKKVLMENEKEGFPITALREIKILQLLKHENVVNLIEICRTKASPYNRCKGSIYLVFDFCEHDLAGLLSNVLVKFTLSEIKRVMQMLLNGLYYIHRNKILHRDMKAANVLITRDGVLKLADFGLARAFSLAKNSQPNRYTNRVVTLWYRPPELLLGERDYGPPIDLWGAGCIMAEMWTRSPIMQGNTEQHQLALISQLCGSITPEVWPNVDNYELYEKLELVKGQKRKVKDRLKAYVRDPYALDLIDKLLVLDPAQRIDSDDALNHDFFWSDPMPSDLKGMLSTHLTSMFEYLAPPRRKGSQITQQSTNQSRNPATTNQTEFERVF
Chain of CDK9/cyclin T1 (O60563 whole entry partner): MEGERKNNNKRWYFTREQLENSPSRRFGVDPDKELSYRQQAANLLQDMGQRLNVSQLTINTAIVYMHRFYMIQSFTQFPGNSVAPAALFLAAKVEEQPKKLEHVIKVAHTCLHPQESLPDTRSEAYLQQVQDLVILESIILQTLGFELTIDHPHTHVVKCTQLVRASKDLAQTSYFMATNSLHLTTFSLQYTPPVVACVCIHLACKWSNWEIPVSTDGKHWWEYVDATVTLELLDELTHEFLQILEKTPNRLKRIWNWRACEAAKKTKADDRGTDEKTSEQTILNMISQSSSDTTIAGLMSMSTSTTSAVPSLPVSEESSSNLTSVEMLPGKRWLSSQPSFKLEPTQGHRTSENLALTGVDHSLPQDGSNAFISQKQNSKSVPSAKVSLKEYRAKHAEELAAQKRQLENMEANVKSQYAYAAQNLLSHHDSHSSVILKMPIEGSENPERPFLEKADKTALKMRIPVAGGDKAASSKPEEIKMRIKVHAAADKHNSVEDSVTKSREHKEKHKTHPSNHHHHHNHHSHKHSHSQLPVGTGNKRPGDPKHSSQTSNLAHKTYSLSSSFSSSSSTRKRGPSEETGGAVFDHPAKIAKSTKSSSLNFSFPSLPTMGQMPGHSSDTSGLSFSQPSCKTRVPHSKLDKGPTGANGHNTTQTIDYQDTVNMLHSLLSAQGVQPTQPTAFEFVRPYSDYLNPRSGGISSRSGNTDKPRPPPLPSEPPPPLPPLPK
Protocol: CTD peptide substrate (biotinyl-Ahx-(Tyr-Ser-Pro-Thr-Ser-Pro-Ser)4-NH2; 1-2 mg/mL) and recombinant human CDK7/cyclin H, CDK9/cyclin T1, or CDK9/cyclin K (0.5-2 μg) were incubated for 45 min at 30° C. in the presence of varying amounts of test compound in 20 mM MOPS pH 7.2, 25 mM β-glycerophosphate, 5 mM EGTA, 1 mM DTT, 1 mM sodium vanadate, 15 mM MgCl2, and 100 μM ATP (containing a trace amount of ^32PγATP) in a total volume of 25 μL in a 96-well microtiter plate. The reaction was stopped by placing the plate on ice for 2 min. Avidin (50 μg) was added to each well, and the plate was incubated at room temp for 30 min. The samples were transferred to a 96-well P81 filter plate, and washed (4×200 μL per well) with 75 mM phosphoric acid. Microscint 40 scintillation liquid (50 μL) was added to each well, and the amount of ^32P incorporation for each sample was measured using a Packard Topcount microplate scintillation counter.

CDK4/Cyclin D1 = CDK4/Cyclin D1 (Homo sapiens, UniProt P11802); assay: CDK4/cyclin D1 kinase assay (GST-Rb phosphorylation); assay type: biochemical; conditions: Table 3; read-out: Average IC50 CDK4 cyclin D1
Chain of CDK4/Cyclin D1 (P11802 whole entry, species assumed): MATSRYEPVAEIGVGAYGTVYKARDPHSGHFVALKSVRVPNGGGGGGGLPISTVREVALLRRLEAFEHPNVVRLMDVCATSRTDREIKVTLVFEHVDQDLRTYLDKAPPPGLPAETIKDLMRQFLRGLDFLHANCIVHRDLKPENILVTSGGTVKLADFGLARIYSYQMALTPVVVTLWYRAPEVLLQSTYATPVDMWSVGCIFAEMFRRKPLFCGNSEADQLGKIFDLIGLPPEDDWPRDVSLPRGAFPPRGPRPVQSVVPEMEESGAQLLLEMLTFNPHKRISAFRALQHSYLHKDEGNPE
Chain of CDK4/Cyclin D1 (P24385 whole entry partner, species assumed): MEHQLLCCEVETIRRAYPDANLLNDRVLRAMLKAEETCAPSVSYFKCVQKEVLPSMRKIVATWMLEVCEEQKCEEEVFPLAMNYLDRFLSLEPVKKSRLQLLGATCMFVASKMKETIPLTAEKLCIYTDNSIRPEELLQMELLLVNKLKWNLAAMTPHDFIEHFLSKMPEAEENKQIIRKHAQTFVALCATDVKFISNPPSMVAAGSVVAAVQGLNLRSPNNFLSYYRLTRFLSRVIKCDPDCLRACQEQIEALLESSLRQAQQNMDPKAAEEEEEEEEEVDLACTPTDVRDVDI

[1] = Table 3, read-out: Average IC50 CDK2 cyclin E1
[2] = Table 3, read-out: Average IC50 CDK9 cyclin T1
[3] = Table 4, read-out: Kinase Inhibition IC50 CDK9-cyclin T1

Chain of CDK1/Cyclin B (P06493 whole entry, species assumed): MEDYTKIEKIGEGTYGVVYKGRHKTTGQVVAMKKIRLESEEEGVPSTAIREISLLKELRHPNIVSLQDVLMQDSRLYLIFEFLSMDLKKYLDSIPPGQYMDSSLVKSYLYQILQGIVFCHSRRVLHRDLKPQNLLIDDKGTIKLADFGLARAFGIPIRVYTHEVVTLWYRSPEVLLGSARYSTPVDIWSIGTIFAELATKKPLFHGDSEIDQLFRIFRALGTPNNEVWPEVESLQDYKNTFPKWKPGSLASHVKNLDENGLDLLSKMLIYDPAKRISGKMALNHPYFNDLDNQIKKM
Chain of CDK1/Cyclin B (P14635 whole entry partner, species assumed): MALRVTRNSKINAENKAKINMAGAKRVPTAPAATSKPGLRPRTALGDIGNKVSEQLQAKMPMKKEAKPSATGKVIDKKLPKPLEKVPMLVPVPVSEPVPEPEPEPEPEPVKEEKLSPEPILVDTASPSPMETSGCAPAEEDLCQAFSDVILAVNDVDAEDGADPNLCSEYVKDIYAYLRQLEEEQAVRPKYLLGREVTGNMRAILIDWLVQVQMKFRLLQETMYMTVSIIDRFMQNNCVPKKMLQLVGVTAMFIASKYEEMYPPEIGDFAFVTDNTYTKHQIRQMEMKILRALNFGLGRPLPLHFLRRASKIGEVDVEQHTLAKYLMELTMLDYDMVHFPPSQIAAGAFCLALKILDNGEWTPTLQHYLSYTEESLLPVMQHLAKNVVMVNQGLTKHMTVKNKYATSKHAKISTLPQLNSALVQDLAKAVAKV

| Structure (SMILES) | IC50 (CDK2/Cyclin E; [1]) [nM] | IC50 (CDK9/cyclin T1; [2]) [nM] | further results |
| --- | --- | --- | --- |
| Cc1nc(C)c(-c2ccnc(Nc3ccc(Cl)cc3)n2)s1 [Compound 2, (4-Chloro-phenyl)-[4-(2,4-dimethyl-thiazol-5-yl)-pyrimidin-2-yl]-amine] |  |  | IC50 (CDK1/Cyclin B): 14000 nM; IC50 (CDK2/Cyclin E): 5100 nM |
| Cc1nc(C)c(-c2ccnc(Nc3ccccc3F)n2)s1 [Compound 7, [4-(2,4-Dimethyl-thiazol-5-yl)-pyrimidin-2-yl]-(2-fluoro-phenyl)-amine] |  |  | IC50 (CDK1/Cyclin B): 12000 nM |
| Cc1nc(C)c(-c2ccnc(Nc3cc(F)cc(F)c3)n2)s1 [Compound 10, (3,5-Difluoro-phenyl)-[4-(2,4-dimethyl-thiazol-5-yl)-pyrimidin-2-yl]-amine] | 5900 |  | IC50 (CDK1/Cyclin B): 5500 nM |
| Cc1nc(C)c(-c2ccnc(Nc3cc(Cl)cc(Cl)c3)n2)s1 [Compound 11, (3,5-Dichloro-phenyl)-[4-(2,4-dimethyl-thiazol-5-yl)-pyrimidin-2-yl]-amine] | 10000 |  | IC50 (CDK1/Cyclin B): 20000 nM |
| Cc1nc(C)c(-c2ccnc(Nc3ccc(Cl)cc3Cl)n2)s1 [Compound 12, (2,4-Dichloro-phenyl)-[4-(2,4-dimethyl-thiazol-5-yl)-pyrimidin-2-yl]-amine] | 10000 |  |  |
| Cc1nc(C)c(-c2ccnc(Nc3cccc(I)c3)n2)s1 [Compound 20, [4-(2,4-Dimethyl-thiazol-5-yl)-pyrimidin-2-yl]-(3-iodo-phenyl)-amine] | 6800 |  |  |
| Cc1nc(C)c(-c2ccnc(Nc3cccc(F)c3)n2)s1 [Compound 22, [4-(2,4-Dimethyl-thiazol-5-yl)-pyrimidin-2-yl]-(3-fluoro-phenyl)-amine] | 220 |  |  |
| Cc1nc(C)c(-c2ccnc(Nc3ccc(F)c(F)c3)n2)s1 [Compound 23, (3,4-Difluoro-phenyl)-[4-(2,4-dimethyl-thiazol-5-yl)-pyrimidin-2-yl]-amine] |  | 3110 |  |
| COc1ccccc1Nc1nccc(-c2sc(C)nc2C)n1 [Compound 24, [4-(2,4-Dimethyl-thiazol-5-yl)-pyrimidin-2-yl]-(2-methoxy-phenyl)-amine] | 6300 |  |  |
| COc1cccc(Nc2nccc(-c3sc(C)nc3C)n2)c1 [Compound 25, [4-(2,4-Dimethyl-thiazol-5-yl)-pyrimidin-2-yl]-(3-methoxy-phenyl)-amine] | 440 |  |  |
| Cc1nc(C)c(-c2ccnc(Nc3ccc(C(=O)O)cc3)n2)s1 [Compound 40, 4-[4-(2,4-Dimethyl-thiazol-5-yl)-pyrimidin-2-ylamino]-benzoic acid] | 740 |  |  |
| Cc1nc(C)c(-c2cc(Br)nc(Nc3cccc([N+](=O)[O-])c3)n2)s1 [Compound 41, [4-Bromo-6-(2,4-dimethyl-thiazol-5-yl)-pyrimidin-2-yl]-(3-nitro-phenyl)-amine] | 580 |  |  |
| CNc1nc(C)c(-c2ccnc(Nc3ccc(O)c([N+](=O)[O-])c3)n2)s1 [Compound 58, 4-[4-(4-Methyl-2-methylamino-thiazol-5-yl)-pyrimidin-2-ylamino]-2-nitro-phenol] | 1500 | 61 |  |
| CCNc1nc(C)c(-c2ccnc(Nc3ccc(F)cc3)n2)s1 [Compound 60, [4-(2-Ethylamino-4-methyl-thiazol-5-yl)-pyrimidin-2-yl]-(4-fluoro-phenyl)-amine] | 510 |  |  |
| CNc1nc(C)c(-c2ccnc(Nc3cccc([N+](=O)[O-])c3)n2)s1 [Compound 61, [4-(4-Methyl-2-methylamino-thiazol-5-yl)-pyrimidin-2-yl]-(3-nitro-phenyl)-amine] | 2100 | 190 |  |
| C=CCNc1nc(C)c(-c2ccnc(Nc3ccc(F)cc3)n2)s1 [Compound 67, [4-(2-Allylamino-4-methyl-thiazol-5-yl)-pyrimidin-2-yl]-(4-fluoro-phenyl)-amine] | 1300 |  |  |
| CNc1nc(C)c(-c2ccnc(Nc3cccc(Br)c3)n2)s1 [Compound 68, (3-Bromo-phenyl)-[4-(4-methyl-2-methylamino-thiazol-5-yl)-pyrimidin-2-yl]-amine] | 27000 | 10 |  |
| C=CCNc1nc(C)c(-c2ccnc(Nc3cccc([N+](=O)[O-])c3)n2)s1 [Compound 69, [4-(2-Allylamino-4-methyl-thiazol-5-yl)-pyrimidin-2-yl]-(3-nitro-phenyl)-amine] |  | 68 |  |
| CNc1nc(C)c(-c2ccnc(Nc3cccc(OC)c3)n2)s1 [Compound 73, (3-Methoxy-phenyl)-[4-(4-methyl-2-methylamino-thiazol-5-yl)-pyrimidin-2-yl]-amine] | 310 | 480 |  |

| Structure (SMILES) | IC50 (CDK2/Cyclin E; [1]) [nM] | IC50 (CDK9/cyclin T1; [2]) [nM] | further results |
| --- | --- | --- | --- |
| CNc1nc(C)c(-c2ccnc(Nc3ccc(C(F)(F)F)cc3)n2)s1 [Compound 74, [4-(4-Methyl-2-methylamino-thiazol-5-yl)-pyrimidin-2-yl]-(4-trifluoromethyl-phenyl)-amine] | 1900 |  |  |
| COc1ccc(Nc2nccc(-c3sc(C)nc3C)n2)c(O)c1 [Compound 79, 2-[4-(2,4-Dimethyl-thiazol-5-yl)-pyrimidin-2-ylamino]-5-methoxy-phenol] | 1200 |  |  |
| COC(=O)c1cc(Nc2nccc(-c3sc(C)nc3C)n2)ccc1Cl [Compound 83, 2-Chloro-5-[4-(2,4-dimethyl-thiazol-5-yl)-pyrimidin-2-ylamino]-benzoic acid methyl ester] | 2000 |  |  |
| CNc1nc(C)c(-c2ccnc(Nc3cccc(F)c3)n2)s1 [Compound 87, (3-Fluoro-phenyl)-[4-(4-methyl-2-methylamino-thiazol-5-yl)-pyrimidin-2-yl]-amine] | 1300 | 63 |  |
| CNc1nc(C)c(-c2ccnc(Nc3ccc(OC)cc3)n2)s1 [Compound 93, (4-Methoxy-phenyl)-[4-(4-methyl-2-methylamino-thiazol-5-yl)-pyrimidin-2-yl]-amine] | 1 |  |  |
| O=[N+]([O-])c1ccc(Nc2ncc(-c3ccnc(Nc4ccc(O)cc4)n3)s2)cc1 [Compound 95, 4-{4-[2-(4-Nitro-phenylamino)-thiazol-5-yl]-pyrimidin-2-ylamino}-phenol] | 120 |  |  |
| Cc1nc(C)c(-c2ccnc(Nc3cccc(CO)c3)n2)s1 [Compound 100, {3-[4-(2,4-Dimethyl-thiazol-5-yl)-pyrimidin-2-ylamino]-phenyl}-methanol] | 190 |  |  |
| Cc1nc(C)c(-c2ccnc(Nc3ccc(Cc4ccncc4)cc3)n2)s1 [Compound 101, [4-(2,4-Dimethyl-thiazol-5-yl)-pyrimidin-2-yl]-(4-pyridin-4-ylmethyl-phenyl)-amine] | 690 |  | IC50 (CDK4/Cyclin D1): 1100 nM |
| Cc1nc(N)sc1-c1ccnc(Nc2ccc(N(C)C)cc2)n1 [Compound 106, N-[4-(2-Amino-4-methyl-thiazol-5-yl)-pyrimidin-2-yl]-N′,N′-dimethyl-benzene-1,4-diamine] |  | 240 |  |
| COc1ccc(Nc2nccc(-c3sc(N)nc3C)n2)cc1 [Compound 111, [4-(2-Amino-4-methyl-thiazol-5-yl)-pyrimidin-2-yl]-(4-methoxy-phenyl)-amine] | 670 |  |  |
| Cc1nc(N)sc1-c1ccnc(Nc2cccc(Br)c2)n1 [Compound 119, [4-(2-Amino-4-methyl-thiazol-5-yl)-pyrimidin-2-yl]-(3-bromo-phenyl)-amine] |  | 280 |  |
| CNc1nc(C)c(-c2ccnc(Nc3ccc(N(C)C)cc3)n2)s1 [Compound 131, N,N-Dimethyl-N′-[4-(4-methyl-2-methylamino-thiazol-5-yl)-pyrimidin-2-yl]-benzene-1,4-diamine] |  | 170 |  |
| CNc1nc(C)c(-c2ccnc(Nc3ccc(I)c([N+](=O)[O-])c3)n2)s1 [Compound 132, (4-Iodo-3-nitro-phenyl)-[4-(4-methyl-2-methylamino-thiazol-5-yl)-pyrimidin-2-yl]-amine] |  | 110 |  |
| CCNc1nc(C)c(-c2ccnc(Nc3ccc(Cl)cc3)n2)s1 [Compound 134, (4-Chloro-phenyl)-[4-(2-ethylamino-4-methyl-thiazol-5-yl)-pyrimidin-2-yl]-amine] | 2000 | 5900 | IC50 (CDK1/Cyclin B): 22000 nM |
| Cc1nc(NCCO)sc1-c1ccnc(Nc2cccc([N+](=O)[O-])c2)n1 [Compound 144, 2-{4-Methyl-5-[2-(3-nitro-phenylamino)-pyrimidin-4-yl]-thiazol-2-ylamino}-ethanol] |  | 4 |  |
| Cc1nc(NCCO)sc1-c1ccnc(Nc2ccc(F)cc2)n1 [Compound 145, 2-{5-[2-(4-Fluoro-phenylamino)-pyrimidin-4-yl]-4-methyl-thiazol-2-ylamino}-ethanol] |  | 8 |  |
| Cc1c(-c2ccnc(Nc3ccc(O)cc3)n2)sc(=O)n1C [Compound 152, 5-[2-(4-Hydroxy-phenylamino)-pyrimidin-4-yl]-3,4-dimethyl-3H-thiazol-2-one] |  |  | IC50 (CDK9/cyclin T1; [3]): 2.3 nM |
| Cc1c(-c2ccnc(Nc3ccc(F)cc3)n2)sc(=O)n1C [Compound 155, 5-[2-(4-Fluoro-phenylamino)-pyrimidin-4-yl]-3,4-dimethyl-3H-thiazol-2-one] |  |  | IC50 (CDK9/cyclin T1; [3]): 2.7 nM |
| Cc1cc(Nc2nccc(-c3sc(=O)n(C)c3C)n2)ccc1F [Compound 162, 5-[2-(4-Fluoro-3-methyl-phenylamino)-pyrimidin-4-yl]-3,4-dimethyl-3H-thiazol-2-one] |  |  | IC50 (CDK9/cyclin T1; [3]): 79 nM |

Source: US20050288307A1, “Anti-viral compounds” (priority 2002, published 2005)
